Measured values from ChEMBL document CHEMBL5247677, “N-Aryl Indoles as a Novel Class of Potent NaV1.7 Inhibitors” (ACS Med Chem Lett, 2023).
In brackets after ≈: the same amount, converted by molar mass. Activity calls are given as the source filed them. The rule behind the calls is not given here.

Legend:
[1] = biological target: Sodium channel protein type 9 subunit alpha/beta-1/beta-2 (Homo sapiens, UniProt Q15858); assay: Inhibition of human Nav1.7/beta1/2 transfected in HEK293-A cells assessed as inhibition of channel current incubated for 5.5 mins by high-throughput electrophysiology system analysis; type: cell-based
[2] = biological target: Sodium channel protein type 9 subunit alpha/beta-1/beta-2 (Mus musculus, UniProt Q62205); assay: Inhibition of mouse Nav1.7/beta1/2 transfected in HEK293-A cells assessed as inhibition of channel current incubated for 5.5 mins by high-throughput electrophysiology system analysis; type: cell-based
Sodium channel protein type 9 subunit alpha/beta-1/beta-2 (Mus musculus, UniProt Q62205), sequence (Q62205 whole entry): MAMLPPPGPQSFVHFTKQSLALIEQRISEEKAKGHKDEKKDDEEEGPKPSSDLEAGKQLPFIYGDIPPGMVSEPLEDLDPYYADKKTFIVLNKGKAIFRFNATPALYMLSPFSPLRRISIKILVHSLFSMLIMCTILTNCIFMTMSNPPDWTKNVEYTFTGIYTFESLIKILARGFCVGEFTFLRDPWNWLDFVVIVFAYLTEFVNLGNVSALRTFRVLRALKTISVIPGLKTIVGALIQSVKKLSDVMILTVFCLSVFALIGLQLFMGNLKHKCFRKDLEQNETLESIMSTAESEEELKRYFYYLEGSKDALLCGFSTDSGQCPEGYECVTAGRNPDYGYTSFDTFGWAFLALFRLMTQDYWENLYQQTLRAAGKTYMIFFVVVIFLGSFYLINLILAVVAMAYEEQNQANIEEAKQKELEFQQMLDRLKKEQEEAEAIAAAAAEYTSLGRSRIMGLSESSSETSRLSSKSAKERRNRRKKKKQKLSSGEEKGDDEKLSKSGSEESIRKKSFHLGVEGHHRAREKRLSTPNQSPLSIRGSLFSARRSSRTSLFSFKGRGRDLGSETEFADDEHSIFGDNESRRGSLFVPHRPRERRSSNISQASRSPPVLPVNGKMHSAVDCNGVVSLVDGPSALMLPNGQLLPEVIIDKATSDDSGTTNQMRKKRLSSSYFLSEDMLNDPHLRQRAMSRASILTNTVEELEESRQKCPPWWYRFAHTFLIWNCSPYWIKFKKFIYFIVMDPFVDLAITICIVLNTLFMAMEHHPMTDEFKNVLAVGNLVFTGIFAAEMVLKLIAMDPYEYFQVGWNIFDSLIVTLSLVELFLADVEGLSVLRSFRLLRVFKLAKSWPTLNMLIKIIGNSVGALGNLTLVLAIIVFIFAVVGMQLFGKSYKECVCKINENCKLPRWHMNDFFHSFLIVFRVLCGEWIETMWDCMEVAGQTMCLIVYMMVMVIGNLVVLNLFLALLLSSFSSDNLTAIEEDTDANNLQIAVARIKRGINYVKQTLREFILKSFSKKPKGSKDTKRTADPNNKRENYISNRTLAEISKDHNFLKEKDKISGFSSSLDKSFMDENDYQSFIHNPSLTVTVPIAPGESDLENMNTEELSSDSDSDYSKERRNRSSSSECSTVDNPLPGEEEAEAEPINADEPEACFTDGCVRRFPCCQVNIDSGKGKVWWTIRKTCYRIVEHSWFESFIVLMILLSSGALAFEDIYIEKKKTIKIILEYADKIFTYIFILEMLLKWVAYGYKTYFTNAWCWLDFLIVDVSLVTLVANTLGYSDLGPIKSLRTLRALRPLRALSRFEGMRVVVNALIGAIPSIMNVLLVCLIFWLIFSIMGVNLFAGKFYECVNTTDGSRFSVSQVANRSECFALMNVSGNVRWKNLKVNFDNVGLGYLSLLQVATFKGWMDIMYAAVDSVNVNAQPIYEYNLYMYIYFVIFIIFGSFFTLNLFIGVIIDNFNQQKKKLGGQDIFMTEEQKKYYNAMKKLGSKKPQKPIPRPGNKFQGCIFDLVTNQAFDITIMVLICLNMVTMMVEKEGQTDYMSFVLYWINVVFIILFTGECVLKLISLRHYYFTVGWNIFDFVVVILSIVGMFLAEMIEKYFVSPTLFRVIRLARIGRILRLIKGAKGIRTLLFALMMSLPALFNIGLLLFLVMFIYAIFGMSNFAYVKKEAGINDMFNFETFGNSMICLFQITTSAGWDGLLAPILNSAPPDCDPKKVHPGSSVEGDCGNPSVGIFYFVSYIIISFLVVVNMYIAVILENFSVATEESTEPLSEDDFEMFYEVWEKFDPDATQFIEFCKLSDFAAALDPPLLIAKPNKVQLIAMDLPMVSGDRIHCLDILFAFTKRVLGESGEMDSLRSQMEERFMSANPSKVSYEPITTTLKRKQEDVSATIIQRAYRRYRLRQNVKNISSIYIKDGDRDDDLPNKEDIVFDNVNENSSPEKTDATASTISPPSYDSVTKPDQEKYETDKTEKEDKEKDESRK
Sodium channel protein type 9 subunit alpha/beta-1/beta-2 (Mus musculus, UniProt Q62205), sequence (P97952 whole entry, further chain): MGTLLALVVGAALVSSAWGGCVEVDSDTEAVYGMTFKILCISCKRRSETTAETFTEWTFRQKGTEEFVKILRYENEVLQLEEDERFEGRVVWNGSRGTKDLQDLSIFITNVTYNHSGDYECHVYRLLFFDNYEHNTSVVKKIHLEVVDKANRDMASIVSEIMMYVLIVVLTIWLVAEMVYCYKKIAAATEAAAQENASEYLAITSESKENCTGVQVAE
Sodium channel protein type 9 subunit alpha/beta-1/beta-2 (Mus musculus, UniProt Q62205), sequence (Q56A07 whole entry, further chain): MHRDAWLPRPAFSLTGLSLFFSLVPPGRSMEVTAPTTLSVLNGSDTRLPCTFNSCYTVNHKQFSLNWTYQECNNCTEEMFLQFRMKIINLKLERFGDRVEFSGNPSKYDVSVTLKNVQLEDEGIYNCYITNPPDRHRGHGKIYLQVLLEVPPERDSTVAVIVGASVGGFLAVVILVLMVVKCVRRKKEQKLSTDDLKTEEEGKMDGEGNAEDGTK

[3] = biological target: Sodium channel protein type 1 subunit alpha/beta-1/beta-2 (Homo sapiens, UniProt P35498); assay: (§1) Inhibition of human Nav1.1/beta1/2 transfected in HEK293-A cells assessed as inhibition of channel current incubated for 5.5 mins by high-throughput electrophysiology system analysis; type: toxicity, cell-based
[4] = biological target: Sodium channel protein type 5 subunit alpha/beta-1/beta-2 (Homo sapiens, UniProt Q14524); assay: (§2) Inhibition of human Nav1.5/beta1/2 transfected in HEK293-A cells assessed as inhibition of channel current incubated for 5.5 mins by high-throughput electrophysiology system analysis; type: toxicity, cell-based
Sodium channel protein type 5 subunit alpha/beta-1/beta-2, sequence (Q14524 whole entry): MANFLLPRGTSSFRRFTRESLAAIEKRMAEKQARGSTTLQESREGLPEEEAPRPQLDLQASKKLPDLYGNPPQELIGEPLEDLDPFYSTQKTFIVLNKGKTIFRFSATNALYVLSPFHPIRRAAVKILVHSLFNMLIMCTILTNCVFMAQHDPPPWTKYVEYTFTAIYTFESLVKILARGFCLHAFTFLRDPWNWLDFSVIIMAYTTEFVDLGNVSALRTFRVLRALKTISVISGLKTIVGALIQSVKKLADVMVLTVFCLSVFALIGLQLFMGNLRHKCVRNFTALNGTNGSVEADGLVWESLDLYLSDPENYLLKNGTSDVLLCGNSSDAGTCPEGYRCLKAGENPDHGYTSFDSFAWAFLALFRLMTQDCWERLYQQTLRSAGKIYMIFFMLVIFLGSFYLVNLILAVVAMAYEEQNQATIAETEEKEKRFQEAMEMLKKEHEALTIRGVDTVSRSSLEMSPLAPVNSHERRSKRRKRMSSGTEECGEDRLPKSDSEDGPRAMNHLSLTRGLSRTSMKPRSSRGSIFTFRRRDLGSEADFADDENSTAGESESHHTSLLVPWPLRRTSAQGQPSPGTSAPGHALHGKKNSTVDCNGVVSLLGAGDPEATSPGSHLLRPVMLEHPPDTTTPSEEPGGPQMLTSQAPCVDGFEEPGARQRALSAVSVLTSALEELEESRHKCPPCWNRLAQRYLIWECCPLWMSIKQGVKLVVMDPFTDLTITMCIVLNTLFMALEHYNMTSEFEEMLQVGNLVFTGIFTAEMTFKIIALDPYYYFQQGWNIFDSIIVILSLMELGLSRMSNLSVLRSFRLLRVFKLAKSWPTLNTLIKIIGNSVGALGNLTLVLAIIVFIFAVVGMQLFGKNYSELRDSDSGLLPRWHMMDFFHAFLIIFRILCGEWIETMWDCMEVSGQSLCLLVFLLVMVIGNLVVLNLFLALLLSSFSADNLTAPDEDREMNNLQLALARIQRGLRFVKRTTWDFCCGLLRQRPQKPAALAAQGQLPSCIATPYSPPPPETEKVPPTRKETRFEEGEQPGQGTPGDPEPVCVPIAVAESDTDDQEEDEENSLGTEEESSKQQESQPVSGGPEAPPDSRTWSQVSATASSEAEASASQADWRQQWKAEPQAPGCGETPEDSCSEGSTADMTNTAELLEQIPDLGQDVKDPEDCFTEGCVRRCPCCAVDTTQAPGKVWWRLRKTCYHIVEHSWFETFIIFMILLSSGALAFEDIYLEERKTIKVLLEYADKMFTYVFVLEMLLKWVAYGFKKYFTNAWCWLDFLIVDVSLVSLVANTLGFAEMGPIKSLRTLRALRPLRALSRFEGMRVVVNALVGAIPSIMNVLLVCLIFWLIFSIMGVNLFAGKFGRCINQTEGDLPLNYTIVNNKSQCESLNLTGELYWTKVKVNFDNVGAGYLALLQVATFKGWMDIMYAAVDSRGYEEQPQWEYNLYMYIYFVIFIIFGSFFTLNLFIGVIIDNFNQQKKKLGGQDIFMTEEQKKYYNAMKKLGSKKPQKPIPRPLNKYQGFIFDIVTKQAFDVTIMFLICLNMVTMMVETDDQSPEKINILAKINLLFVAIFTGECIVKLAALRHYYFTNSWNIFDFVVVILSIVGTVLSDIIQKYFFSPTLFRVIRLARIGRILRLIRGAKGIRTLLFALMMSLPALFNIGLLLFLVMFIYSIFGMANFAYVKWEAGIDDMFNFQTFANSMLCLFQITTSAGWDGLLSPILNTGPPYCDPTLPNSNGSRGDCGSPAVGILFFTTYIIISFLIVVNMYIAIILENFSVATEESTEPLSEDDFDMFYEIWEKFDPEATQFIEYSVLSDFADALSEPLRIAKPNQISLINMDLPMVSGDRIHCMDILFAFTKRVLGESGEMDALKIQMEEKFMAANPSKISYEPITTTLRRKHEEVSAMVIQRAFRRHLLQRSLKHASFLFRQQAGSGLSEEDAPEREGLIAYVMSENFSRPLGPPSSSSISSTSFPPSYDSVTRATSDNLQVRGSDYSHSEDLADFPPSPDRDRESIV
Sodium channel protein type 5 subunit alpha/beta-1/beta-2, sequence (O60939 whole entry, further chain): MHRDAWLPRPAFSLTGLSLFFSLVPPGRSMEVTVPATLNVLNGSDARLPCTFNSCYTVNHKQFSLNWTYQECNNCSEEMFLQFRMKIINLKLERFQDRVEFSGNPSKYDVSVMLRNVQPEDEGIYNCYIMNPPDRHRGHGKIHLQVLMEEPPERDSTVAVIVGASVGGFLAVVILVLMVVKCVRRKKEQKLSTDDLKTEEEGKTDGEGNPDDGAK
Sodium channel protein type 5 subunit alpha/beta-1/beta-2, sequence (Q07699 whole entry, further chain): as the sequence (P97952 whole entry, further chain) above, with T3R, W18C, D27E, T50N, D130E, L144I, V179I, A191T counted along it

[5] = biological target: hERG (KCNH2) (Homo sapiens, UniProt Q12809); assay: Inhibition of hERG at 100 uM; type: toxicity
[6] = 1-Octanol/PBS buffer distribution coefficient, log D of the compound at pH 7.4 by HPLC/LC-MS analysis; type: physicochemical
[7] = Aqueous thermodynamic solubility of the compound at pH 6.8 measured after 4 hrs by HPLC-UV analysis; type: physicochemical; conditions: read-out: Therm_solubility
[8] = Unbound fraction in mouse plasma; type: ADME, cell-free
[9] = system: Mus musculus; assay: Analgesic activity against PSL-induced neuropathic pain mouse model assessed as reversal of thermal hyperalgesia at 1 mg/kg, po measured after 30 mins by plantar test; type: functional; conditions: 0.5 h
[10] = Cmax in ddY mouse at 1 mg/kg, po by LC-MS/MS analysis; type: ADME, organism-based; set-up: dose 1 mg/kg, route po; conditions: in vivo
[11] = Tmax in ddY mouse at 1 mg/kg, po by LC-MS/MS analysis; type: ADME, organism-based; conditions: in vivo
[12] = AUC(0 to 24 hrs) in ddY mouse at 1 mg/kg, po by LC-MS/MS analysis; type: ADME, organism-based; set-up: dose 1 mg/kg, route po; conditions: in vivo
[13] = Half life in ddY mouse at 1 mg/kg, po by LC-MS/MS analysis; type: ADME, organism-based; conditions: in vivo
[14] = Total body clearance in ddY mouse at 1 mg/kg, iv by LC-MS/MS analysis; type: ADME, organism-based; conditions: in vivo
[15] = Volume of distribution at steady state in ddY mouse at 1 mg/kg, iv by LC-MS/MS analysis; type: ADME, organism-based; conditions: in vivo, read-out: Vdss
[16] = Bioavailability in ddY mouse at 1 mg/kg, iv by LC-MS/MS analysis; type: ADME, organism-based; conditions: in vivo
[17] = Ratio of fCmax in ddY mouse plasma at 1 mg/kg, po to IC50 for inhibition of mouse Nav1.7/beta1/2 transfected in HEK293-A cells
[18] = Selectivity ratio of IC50 for mouse Nav1.7/beta1/2 transfected in HEK293-A cells to IC50 for human Nav1.7/beta1/2 transfected in HEK293-A cells; type: cell-based
[19] = Selectivity ratio of IC50 for human Nav1.1/beta1/2 transfected in HEK293-A cells to IC50 for human Nav1.7/beta1/2 transfected in HEK293-A cells
[20] = Selectivity ratio of IC50 for human Nav1.5/beta1/2 transfected in HEK293-A cells to IC50 for human Nav1.7/beta1/2 transfected in HEK293-A cells
[21] = biological target: Nav1.1/beta1/beta2 sodium channel (Homo sapiens, UniProt P35498); assay: as §1; type: toxicity, cell-based; conditions: human, HEK293-A cells transfected with human Nav1.1/beta1/2
[22] = system: Mus musculus; assay: Analgesic activity against PSL-induced neuropathic pain mouse model assessed as reversal of thermal hyperalgesia at 3 mg/kg, po by plantar test; type: functional, organism-based
[23] = biological target: Nav1.5/beta1/beta2 sodium channel (Homo sapiens, UniProt Q14524); assay: as §2; type: toxicity, cell-based; conditions: human, HEK293-A cells transfected with human Nav1.5/beta1/2
[24] = system: Mus musculus; assay: Analgesic activity against PSL-induced neuropathic pain mouse model assessed as reversal of thermal hyperalgesia at 1 mg/kg, po measured after 60 mins by plantar test; type: functional, organism-based
[25] = system: Mus musculus; assay: Analgesic activity against PSL-induced neuropathic pain mouse model assessed as reversal of thermal hyperalgesia at 1 mg/kg, po measured after 180 mins by plantar test; type: functional, organism-based

| SMILES | IC50 [1] | IC50 [2] | IC50 [3] | IC50 [4] | inhibition at 100 µM [5] | logD [6] | solubility thermodynamic at 4 h [7] | fraction unbound [8] | further results |
| --- | --- | --- | --- | --- | --- | --- | --- | --- | --- |
| Cc1cn(-c2cncc(F)c2)c2ccc(C(=O)NS(=O)(=O)C3CC3)cc12 | 0.86 µM | 2.7 µM | > 100 µM | > 300 µM | -1.1% | – | – | – | – |
| Cc1cn(-c2cccnc2)c2ccc(C(=O)NS(C)(=O)=O)cc12 | > 10 µM | – | – | > 300 µM | -0.1% | – | – | – | – |
| Cc1cn(-c2cccc(F)c2)c2ccc(C(=O)NS(C)(=O)=O)cc12 | 0.038 µM | 0.9 µM | 12 µM | 35 µM | 13.2% | 1.2 | 600 µM (≈ 208 µg/mL) | < 0.002 | – |
| Cc1cn(-c2cccc(F)c2)c2ccc(C(=O)NS(=O)(=O)C3CC3)cc12 | 0.032 µM | 0.81 µM | 4.8 µM | 14 µM | 42.1% | 1.8 | 440 µM (≈ 164 µg/mL) | < 0.002 | Efficacy [9]: 79%; Cmax [10]: 1700 nM; Tmax [11]: 1 h; AUC(0-t) [12]: 12.1 µM·h; half-life [13]: 5 h; clearance [14]: 2.58 mL/min/kg; Vd [15]: 0.57 L/kg; bioavailability [16]: 65%; Ratio [17]: <0.0042 |
| CS(=O)(=O)NC(=O)c1ccc2c(ccn2-c2ccccc2)c1 | > 10 µM | > 10 µM | – | – | – | – | – | – | – |
| Cc1cn(-c2ccccc2)c2ccc(C(=O)NS(C)(=O)=O)cc12 | 0.33 µM | 2.7 µM | 80 µM | 79 µM | 17.1% | 1.1 | > 660 µM | < 0.002 | Ratio IC50 [18]: 10; Ratio IC50 [19]: 240; Ratio IC50 [20]: 240 |
| Cc1cn(-c2cccnc2)c2ccc(C(=O)NS(=O)(=O)C3CC3)cc12 | 1.6 µM | > 10 µM | > 100 µM | > 300 µM | -8.8% | – | – | – | – |
| Cn1cc(-c2ccccc2)c2cc(C(=O)NS(C)(=O)=O)ccc21 | > 10 µM | > 10 µM | – | – | – | – | – | – | – |
| Cc1cn(-c2cncc(Cl)c2)c2ccc(C(=O)NS(=O)(=O)C3CC3)cc12 | 0.085 µM | 0.46 µM | 9.9 µM | 107 µM | 34.1% | 0.8 | 35 µM (≈ 13.6 µg/mL) | – | – |
| Cc1cccc(-n2cc(C)c3cc(C(=O)NS(C)(=O)=O)ccc32)c1 | 0.058 µM | 1.6 µM | 39 µM | – | 51% | 1.6 | 550 µM (≈ 188 µg/mL) | – | – |
| Cc1cn(-c2cccc(Cl)c2)c2ccc(C(=O)NS(C)(=O)=O)cc12 | 0.087 µM | 1.7 µM | 20 µM | 34 µM | 43.5% | 1.8 | 620 µM (≈ 225 µg/mL) | < 0.002 | – |
| Cc1cn(-c2ccc(Cl)cc2)c2ccc(C(=O)NS(C)(=O)=O)cc12 | 0.26 µM | 7.9 µM | > 100 µM | 23 µM | 51.1% | 1.8 | 26 µM (≈ 9.43 µg/mL) | – | – |
| Cc1cn(-c2ccc(C(F)(F)F)nc2)c2ccc(C(=O)NS(=O)(=O)C3CC3)cc12 | 0.059 µM | 1.6 µM | > 100 µM | 210 µM | 21% | 1 | 29 µM (≈ 12.3 µg/mL) | 0.014 | – |
| C[C@@H](c1cc(Cl)cc(Cl)c1)N1CCC(COc2cc(F)c(C(=O)NS(C)(=O)=O)cc2C2CC2)CC1 | 0.0006 µM | – | – | 0.551 µM | – | – | – | – | IC50 at 5.5 min [21]: 0.202 µM |
| Cc1cn(-c2ccccc2F)c2ccc(C(=O)NS(C)(=O)=O)cc12 | 5.9 µM | 12 µM | – | 100 µM | – | – | – | – | – |
| Cc1cn(-c2cccc(C(F)(F)F)c2)c2cc(F)c(C(=O)NS(C)(=O)=O)cc12 | 0.019 µM | 0.016 µM | > 100 µM | 14 µM | 54.8% | 1.5 | 230 µM (≈ 95.3 µg/mL) | 0.004 | Ratio IC50 [19]: 5000; Ratio IC50 [20]: 740; Activity [22]: Active |
| O=C(NS(=O)(=O)N1CCC1)c1cc(C2CC2)c(OCC23CC4CC(CC(C4)C2)C3)cc1F | – | – | – | – | – | – | – | – | IC50 at 5.5 min [23]: 0.051 µM |
| CS(=O)(=O)NC(=O)c1ccc2c(ccn2Cc2ccccc2)c1 | > 10 µM | > 10 µM | – | – | – | – | – | – | – |
| COc1cccc(-n2cc(C)c3cc(C(=O)NS(C)(=O)=O)ccc32)c1 | 0.19 µM | 2.1 µM | 79 µM | 71 µM | 18.9% | 1.2 | 580 µM (≈ 208 µg/mL) | < 0.002 | – |
| Cc1cn(-c2cccc(C(F)(F)F)c2)c2ccc(C(=O)NS(C)(=O)=O)cc12 | 0.034 µM | 0.68 µM | 20 µM | 27 µM | 49.8% | 1.7 | > 820 µM | 0.002 | – |
| Cc1cn(-c2ccc(F)cc2)c2ccc(C(=O)NS(C)(=O)=O)cc12 | 0.19 µM | 2.8 µM | 52 µM | 42 µM | 5.6% | 1.1 | 140 µM (≈ 48.5 µg/mL) | < 0.002 | – |
| Cc1cn(-c2cccc(F)c2)c2cc(F)c(C(=O)NS(C)(=O)=O)cc12 | 0.014 µM | 0.98 µM | > 100 µM | 31 µM | 15.6% | 0.8 | 430 µM (≈ 157 µg/mL) | < 0.002 | – |
| Cc1cn(-c2cncc(C(F)(F)F)c2)c2cc(F)c(C(=O)NS(=O)(=O)C3CC3)cc12 | 0.04 µM | 0.015 µM | 1.2 µM | 32 µM | -2.9% | 0.6 | 25 µM (≈ 11 µg/mL) | 0.007 | Ratio IC50 [19]: 30; Efficacy [9]: 64%; Activity [24]: Active; Activity [25]: inactive; Cmax [10]: 1400 nM; Tmax [11]: 6 h; AUC(0-t) [12]: 23.6 µM·h; half-life [13]: 13.5 h; Ratio [17]: 0.65 |
| CS(=O)(=O)NC(=O)c1cc(Cl)c(Oc2cnc(C3CC3)c(Cl)c2)cc1F | 0.052 µM | 1.7 µM | 22 µM | 29 µM | – | – | – | – | – |
| CS(=O)(=O)NC(=O)c1ccc2[nH]cc(-c3ccccc3)c2c1 | > 10 µM | > 10 µM | – | – | – | – | – | – | – |
